# From patent publication US20160296529A1, “AMINOTRIAZOLOPYRIDINE FOR USE IN THE TREATMENT OF INFLAMMATION, AND PHARMACEUTICAL COMPOSITIONS THEREOF” (priority 2012, published 2016)
# Several values for one entry are separate records, joined by “and”; a condition that tells them apart may be missing. Identical values can stand only once. Like-named read-outs stand apart in the source and are kept apart here.
# What was measured:
# [1] = target: T1, Recombinant human TYK2 catalytic domain (Homo sapiens, UniProt P29597); assay: TYK2 inhibition assay; format: biochemical
# T1 construct: amino acids 871-1187; catalog number 08-147; GST; purchased Carna Biosciences 08-147
# T1 sequence (P29597 871-1187): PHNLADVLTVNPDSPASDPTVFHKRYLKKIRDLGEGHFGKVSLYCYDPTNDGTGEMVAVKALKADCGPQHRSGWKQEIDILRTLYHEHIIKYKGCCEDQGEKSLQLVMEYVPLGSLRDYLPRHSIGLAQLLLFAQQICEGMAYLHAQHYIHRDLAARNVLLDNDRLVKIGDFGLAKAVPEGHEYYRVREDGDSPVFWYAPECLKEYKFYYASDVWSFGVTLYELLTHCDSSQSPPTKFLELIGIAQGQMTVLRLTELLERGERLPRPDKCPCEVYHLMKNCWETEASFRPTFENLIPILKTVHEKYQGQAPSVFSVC
# Method: Recombinant human TYK2 catalytic domain (amino acids 871-1187; catalog number 08-147) was purchased from Carna biosciences. 4 ng of TYK2 was incubated with 12.5 μg polyGT substrate (Sigma catalog number P0275) in kinase reaction buffer (25 mM Hepes pH 7.2, 50 mM NaCl, 0.5 mM EDTA, 1 mM DTT, 5 mM MnCl2, 10 mM MgCl2, 0.1% Brij-35, 0.1 μM non-radioactive ATP, 0.125 μCi ^33P-gamma-ATP (Perkin Elmer, catalog number NEG602K001MC) final concentrations) with or without 5 μL containing test compound or vehicle (DMSO, 1% final concentration), in a total volume of 25 μL, in a polypropylene 96-well plate (Greiner, V-bottom). After 90 min at 30° C., reactions were stopped by adding 25 μL/well of 150 mM phosphoric acid. […] 40 μL/well of Microscint-20 was added, the top of the plates was sealed and readout was performed using the Topcount (Perkin Elmer). Kinase activity was calculated by subtracting counts per min (cpm) obtained in the presence of a positive control inhibitor (10 μM staurosporine) from cpm obtained in the presence of vehicle. The ability of a test compound to inhibit this activity was determined as:
# Percentage inhibition−((cpm determined for sample with test compound present−cpm determined for sample with positive control inhibitor) divided by (cpm determined in the presence of vehicle−cpm determined for sample with positive control inhibitor))*100. […]
# [2] = test system: IFNα-induced STAT1 phosphorylation (JAK1/TYK2 pathway); assay: Human whole blood assay (hWBA), IFNα stimulation, phospho-STAT1 on CD4+ cells; format: cell-based; conditions: 6 different donors
# Method: A flow cytometry analysis was performed to establish JAK1 over JAK2 compound selectivity ex vivo using human whole blood. Therefore, blood is taken from human volunteers who gave informed consent. Blood is then equilibrated for 30 min at 37° C. under gentle rocking, then aliquoted in Eppendorf tubes. Compound is added at different concentrations and incubated at 37° C. for 30 min under gentle rocking and subsequently stimulated for 20 min at 37° C. under gentle rocking with interleukin 6 (IL-6) for JAK1-dependent pathway stimulation, Interferon alpha (IFNα) for JAK1/TYK2 pathway stimulation, interleukin 2 (IL-2) for JAK1/JAK3 pathway stimulation or GM-CSF for JAK2-dependent pathway stimulation. Phospho-STAT1 (for IL-6- and IFNα-stimulated cells) and phospho-STAT5 (for IL-2- and GM-CSF-stimulated cells) levels are then evaluated using FACS analysis. […]
# Cells were then washed once with 1×PBS and analyzed on a FACSCanto II flow cytometer (BD Biosciences).
# 50,000 total events were counted and Phospho-STAT1 positive cells were measured after gating on CD4+ cells, in the lymphocyte gate for IL-6- and IFNα-stimulated cells. Phospho-STAT5 positive cells were measured after gating on CD4+ cells, in the lymphocyte gate for IL-2-stimulated cells. Phospho-STAT5 positive cells were measured after gating on CD33+ cells. […]
smiles,measurement,setting,value
"Nc1nc2cccc(-c3ccc(CN4CCS(=O)(=O)CC4)cc3)n2n1 [Formula I, 5-[4-(1,1-Dioxothiomorpholin-4-ylmethyl)-phenyl]-[1,2,4]triazolo[1,5-a]pyridin-2-ylamine]",IC50,"[1]; average, read-out: IC50 (average)",> 3000 nM
same,IC50,"[1]; individual determinations, read-out: IC50",> 3.33 µM (3×) and 1.97 µM and 2.12 µM and 3.85 µM and 3.82 µM and 2.21 µM
same,IC50,[2],15.4 µM
